Assay results taken from patent US20220370440A1 (Lead Discovery Center GmbH, priority 2018, published 2022).

Columns and labels:
HER2 INS YVMA = target: T1, HER2 INS YVMA (Homo sapiens, UniProt P04626, INS775YVMA); experiment: Lance Kinase Activity Assay, HER2 INS YVMA (Her2 Exon 20 INSYVMA Lance); type: biochemical; conditions: biochemical Lance assay
T1 construct: purchased DPF
How it was run: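 IC50 was fitted to sigmoidal curves of TR-FRET signal (665 and 615 nm emission after 340 nm excitation) from an Eu anti-phospho antibody binding the phosphorylated ULight peptide. The ATP-started reaction ran 1 h at RT and was then quenched with 10 mM EDTA plus antibody for a further 1 h. Compounds were tested as 8-point, 3-fold dilutions.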

[1] = target: Her2 Exon 20 INSYVMA Ba/F3 (Homo sapiens, UniProt P04626, DUP772-775, cells depend on it); experiment: Her2 Exon 20 INSYVMA Ba/F3 CellTiter-Glo; type: cell-based; conditions: CellTiter-Glo, 72 h, read-out: Her2 Exon 20 INSYVMA Ba/F3 CTG IC50
How it was run: (§1)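 Ba/F3 cells were seeded, left 24 h at 37 °C/5% CO2, then exposed to compound dilutions in DMSO for 72 h. Viability was read as ATP luminescence (CellTiter-Glo) and IC50 fitted from dose–response curves; DMSO and 10 μM staurosporine defined the controls, and plates needed Z′ ≥0.5.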

[2] = target: EGFR Exon 20 INSNPH Ba/F3 (Homo sapiens, UniProt P00533, DUP771-773, cells depend on it); experiment: EGFR Exon 20 INSNPH Ba/F3 CellTiter-Glo; type: cell-based; conditions: CellTiter-Glo, 72 h, read-out: EGFR Exon 20 INSNPH Ba/F3 CTG IC50
How it was run: as §1

EGFR T790ML858R = EGFR T790ML858R (Homo sapiens, UniProt P00533, L858R/T790M); experiment: EGFR T790ML858R Lance assay; type: biochemical
Experimental: (§2) Inhibition is indicated as […] [nM] (“−”=not measured). Compounds having an activity designated as “A” provided an IC50≤100 nM; compounds having an activity designated as “B” provided an 100 nM<IC50≤500 nM; compounds having an activity designated as “C” provided an 500 nM<IC50≤1000 nM; compounds having an activity designated as “D” provided an 1000 nM<IC50≤100000 nM; and compounds having an activity designated as “E” provided an IC50>10000 nM.

EGFR wt = EGFR wt (Homo sapiens, UniProt P00533); experiment: EGFR wt Lance assay; type: biochemical
Experimental: as §2

H1975 = H1975 CellTiter-Glo; type: cell-based; conditions: Homo sapiens, NCI-H1975; 72 h compound incubation; read-out: H1975 CTG IC50
How it was run: (§3)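 In this viability format, compound-treated cells sit 72 h at 37° C. before ATP content is quantified by luminescence, and IC50 is taken from the fitted dose-response curve.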

H1781 = H1781 CellTiter-Glo; type: cell-based; conditions: NCI-H1781; 72 h compound incubation; read-out: H1781 CTG IC50
Experimental: 2. Measurement of Cellular Activity
The CellTiter-Glo Luminescent Cell Viability Assay (Promega) is a homogeneous method of determining the number of viable cells in culture. It is based on quantification of ATP, indicating the presence of metabolically active cells. Cells are seeded on day 1 at cell numbers that assure assay linearity and optimal signal intensity. After incubation for 24 h in humidified chambers at 37° C. and 5% CO2, compounds in DMSO are added at different concentrations. Cells are further incubated for 72 h at 37° C. and 5% CO2. Cells treated with the compound vehicle DMSO are used as positive controls and cells treated with 10 μM Staurosporine serve as negative controls. At day 5 the CellTiter Glo Reagent is prepared according to the instructions of the kit (Promega Inc.): Reagent is mixed 1:1 with cell culture medium. Thereon, mixture and assay plates are equilibrated at room temperature for 20 min. Equal volumes of the reagent-medium-mixture is added to the volume of culture medium present in each well. The plates are mixed at ˜200 rpm for 2 minutes on an orbital shaker. The microplates are then incubated at room temperature for 10 minutes for stabilization of the luminescent signal. Following incubation the luminescence is recorded on a Victor microplate reader (Perkin Elmer) using a 200 ms integration time. The data is then analyzed with Excel using the XLFIT Plugin (dose response Fit 205) for IC50-determination. As quality control the Z′-factor is calculated from 16 positive and negative control values. Only assay results showing a Z′-factor ≥0.5 are used for further analysis.
as §2

A431 = A431 CellTiter-Glo; type: cell-based; conditions: Homo sapiens, A-431; 72 h compound incubation; read-out: A431 CTG IC50
How it was run: as §3

[3] = Metabolic stability in mouse liver microsomes without cofactor NADPH; type: in vitro ADME; conditions: 3 μM test compound, mouse liver microsomes, without NADPH, 50 min, 37° C., LC-MS/MS
How it was run: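 Cofactor-free incubation: no NADPH added to mouse liver microsomes, with compound at 3 μM and 37° C. Remaining parent was quantified by LC-MS/MS at time points up to 50 minutes to track depletion.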

EGFR Exon 20 INSNPH Ba/F3, sequence (P00533 with tags, fused parts or gaps DUP771-773): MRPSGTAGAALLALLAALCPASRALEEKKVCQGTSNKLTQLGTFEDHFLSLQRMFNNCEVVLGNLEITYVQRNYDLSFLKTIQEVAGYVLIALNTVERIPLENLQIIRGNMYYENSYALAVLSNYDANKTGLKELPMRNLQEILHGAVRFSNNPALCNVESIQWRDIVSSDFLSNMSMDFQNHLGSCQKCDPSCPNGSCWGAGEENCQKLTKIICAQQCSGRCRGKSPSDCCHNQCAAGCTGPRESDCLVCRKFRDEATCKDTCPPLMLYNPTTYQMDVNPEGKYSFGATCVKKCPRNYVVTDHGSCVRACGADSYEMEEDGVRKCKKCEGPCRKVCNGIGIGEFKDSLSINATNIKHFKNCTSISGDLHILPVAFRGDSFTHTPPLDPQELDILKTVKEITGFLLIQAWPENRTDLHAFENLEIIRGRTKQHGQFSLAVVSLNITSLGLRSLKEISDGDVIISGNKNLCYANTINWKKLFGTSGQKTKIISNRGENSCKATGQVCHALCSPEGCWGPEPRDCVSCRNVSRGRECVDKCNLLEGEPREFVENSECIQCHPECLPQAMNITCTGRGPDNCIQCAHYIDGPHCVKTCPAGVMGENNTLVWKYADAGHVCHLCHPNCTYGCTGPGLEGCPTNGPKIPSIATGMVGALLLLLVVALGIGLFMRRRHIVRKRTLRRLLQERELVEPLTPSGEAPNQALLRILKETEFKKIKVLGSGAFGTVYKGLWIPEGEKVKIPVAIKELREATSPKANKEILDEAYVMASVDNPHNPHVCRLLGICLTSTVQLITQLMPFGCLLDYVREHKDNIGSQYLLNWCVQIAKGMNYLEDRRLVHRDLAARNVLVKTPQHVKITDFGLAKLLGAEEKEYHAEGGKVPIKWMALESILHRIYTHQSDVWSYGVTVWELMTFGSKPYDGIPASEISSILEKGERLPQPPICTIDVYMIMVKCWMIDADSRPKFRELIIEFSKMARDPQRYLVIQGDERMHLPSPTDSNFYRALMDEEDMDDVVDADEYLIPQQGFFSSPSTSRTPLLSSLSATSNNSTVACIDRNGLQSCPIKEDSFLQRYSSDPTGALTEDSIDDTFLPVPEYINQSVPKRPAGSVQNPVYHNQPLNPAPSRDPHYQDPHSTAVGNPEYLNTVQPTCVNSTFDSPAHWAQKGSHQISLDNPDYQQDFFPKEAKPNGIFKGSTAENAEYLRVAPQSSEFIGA
EGFR T790ML858R, sequence (P00533 25-1210 T790M/L858R): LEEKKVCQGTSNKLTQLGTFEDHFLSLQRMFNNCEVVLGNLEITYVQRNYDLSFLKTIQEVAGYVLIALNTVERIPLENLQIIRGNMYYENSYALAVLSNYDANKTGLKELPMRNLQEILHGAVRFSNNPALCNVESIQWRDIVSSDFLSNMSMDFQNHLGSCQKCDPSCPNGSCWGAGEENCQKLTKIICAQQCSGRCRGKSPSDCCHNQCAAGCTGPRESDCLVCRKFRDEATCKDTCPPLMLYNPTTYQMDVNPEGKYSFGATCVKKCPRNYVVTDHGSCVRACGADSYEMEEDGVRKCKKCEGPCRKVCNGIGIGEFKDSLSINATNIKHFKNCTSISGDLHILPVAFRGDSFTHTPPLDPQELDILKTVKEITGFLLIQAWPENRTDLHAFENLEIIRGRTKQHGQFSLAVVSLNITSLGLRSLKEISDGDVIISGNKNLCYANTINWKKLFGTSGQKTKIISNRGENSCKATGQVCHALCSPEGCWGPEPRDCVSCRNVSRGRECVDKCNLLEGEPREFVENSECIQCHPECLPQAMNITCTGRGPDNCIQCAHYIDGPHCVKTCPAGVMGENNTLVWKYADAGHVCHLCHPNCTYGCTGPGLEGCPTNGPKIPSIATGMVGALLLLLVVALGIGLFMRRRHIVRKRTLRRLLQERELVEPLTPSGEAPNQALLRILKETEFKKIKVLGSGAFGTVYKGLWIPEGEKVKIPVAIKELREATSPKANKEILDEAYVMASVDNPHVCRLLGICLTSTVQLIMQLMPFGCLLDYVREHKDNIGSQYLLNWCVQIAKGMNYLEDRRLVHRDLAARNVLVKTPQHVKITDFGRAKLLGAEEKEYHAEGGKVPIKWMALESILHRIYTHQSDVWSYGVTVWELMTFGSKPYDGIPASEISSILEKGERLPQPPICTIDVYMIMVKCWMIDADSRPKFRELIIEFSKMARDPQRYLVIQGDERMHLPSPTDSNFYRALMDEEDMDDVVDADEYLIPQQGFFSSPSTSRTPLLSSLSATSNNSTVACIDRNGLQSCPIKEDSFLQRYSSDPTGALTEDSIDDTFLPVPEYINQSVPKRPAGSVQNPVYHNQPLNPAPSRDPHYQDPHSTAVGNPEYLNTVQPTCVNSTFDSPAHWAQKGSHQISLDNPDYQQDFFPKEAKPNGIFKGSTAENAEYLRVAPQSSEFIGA
T1 sequence (P04626 with tags, fused parts or gaps INS775YVMA): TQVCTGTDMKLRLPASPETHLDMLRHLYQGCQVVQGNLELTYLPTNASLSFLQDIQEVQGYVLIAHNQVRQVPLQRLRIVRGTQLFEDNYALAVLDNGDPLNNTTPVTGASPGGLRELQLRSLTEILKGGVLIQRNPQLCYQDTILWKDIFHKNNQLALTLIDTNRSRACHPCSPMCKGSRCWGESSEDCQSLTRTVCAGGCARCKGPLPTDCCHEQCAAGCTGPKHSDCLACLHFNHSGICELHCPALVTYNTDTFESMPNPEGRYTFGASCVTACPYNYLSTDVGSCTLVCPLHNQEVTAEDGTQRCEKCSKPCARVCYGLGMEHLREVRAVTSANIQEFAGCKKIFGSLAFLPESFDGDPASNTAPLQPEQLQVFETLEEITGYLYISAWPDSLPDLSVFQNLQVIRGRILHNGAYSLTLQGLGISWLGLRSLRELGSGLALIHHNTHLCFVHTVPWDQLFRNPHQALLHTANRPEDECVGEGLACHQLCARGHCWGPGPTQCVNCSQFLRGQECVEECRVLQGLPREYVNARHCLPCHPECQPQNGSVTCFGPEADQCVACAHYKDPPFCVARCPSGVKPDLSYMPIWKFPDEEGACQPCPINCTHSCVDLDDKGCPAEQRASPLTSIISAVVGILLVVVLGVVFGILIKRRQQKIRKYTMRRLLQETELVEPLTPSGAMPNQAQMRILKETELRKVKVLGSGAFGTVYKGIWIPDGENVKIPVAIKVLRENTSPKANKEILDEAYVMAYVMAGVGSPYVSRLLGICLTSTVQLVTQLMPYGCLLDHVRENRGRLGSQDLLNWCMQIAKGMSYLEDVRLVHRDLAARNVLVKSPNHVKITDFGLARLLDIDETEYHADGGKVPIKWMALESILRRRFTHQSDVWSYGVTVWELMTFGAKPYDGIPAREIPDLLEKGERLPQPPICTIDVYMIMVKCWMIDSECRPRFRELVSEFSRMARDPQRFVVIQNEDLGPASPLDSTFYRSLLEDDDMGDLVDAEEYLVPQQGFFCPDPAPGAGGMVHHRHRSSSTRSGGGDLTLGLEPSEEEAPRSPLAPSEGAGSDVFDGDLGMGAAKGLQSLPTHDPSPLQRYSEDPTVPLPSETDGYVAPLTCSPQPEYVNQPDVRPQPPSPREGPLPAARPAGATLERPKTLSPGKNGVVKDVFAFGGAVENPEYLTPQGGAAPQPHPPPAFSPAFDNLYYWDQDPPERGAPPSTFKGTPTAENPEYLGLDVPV
Her2 Exon 20 INSYVMA Ba/F3, sequence (P04626 with tags, fused parts or gaps DUP772-775): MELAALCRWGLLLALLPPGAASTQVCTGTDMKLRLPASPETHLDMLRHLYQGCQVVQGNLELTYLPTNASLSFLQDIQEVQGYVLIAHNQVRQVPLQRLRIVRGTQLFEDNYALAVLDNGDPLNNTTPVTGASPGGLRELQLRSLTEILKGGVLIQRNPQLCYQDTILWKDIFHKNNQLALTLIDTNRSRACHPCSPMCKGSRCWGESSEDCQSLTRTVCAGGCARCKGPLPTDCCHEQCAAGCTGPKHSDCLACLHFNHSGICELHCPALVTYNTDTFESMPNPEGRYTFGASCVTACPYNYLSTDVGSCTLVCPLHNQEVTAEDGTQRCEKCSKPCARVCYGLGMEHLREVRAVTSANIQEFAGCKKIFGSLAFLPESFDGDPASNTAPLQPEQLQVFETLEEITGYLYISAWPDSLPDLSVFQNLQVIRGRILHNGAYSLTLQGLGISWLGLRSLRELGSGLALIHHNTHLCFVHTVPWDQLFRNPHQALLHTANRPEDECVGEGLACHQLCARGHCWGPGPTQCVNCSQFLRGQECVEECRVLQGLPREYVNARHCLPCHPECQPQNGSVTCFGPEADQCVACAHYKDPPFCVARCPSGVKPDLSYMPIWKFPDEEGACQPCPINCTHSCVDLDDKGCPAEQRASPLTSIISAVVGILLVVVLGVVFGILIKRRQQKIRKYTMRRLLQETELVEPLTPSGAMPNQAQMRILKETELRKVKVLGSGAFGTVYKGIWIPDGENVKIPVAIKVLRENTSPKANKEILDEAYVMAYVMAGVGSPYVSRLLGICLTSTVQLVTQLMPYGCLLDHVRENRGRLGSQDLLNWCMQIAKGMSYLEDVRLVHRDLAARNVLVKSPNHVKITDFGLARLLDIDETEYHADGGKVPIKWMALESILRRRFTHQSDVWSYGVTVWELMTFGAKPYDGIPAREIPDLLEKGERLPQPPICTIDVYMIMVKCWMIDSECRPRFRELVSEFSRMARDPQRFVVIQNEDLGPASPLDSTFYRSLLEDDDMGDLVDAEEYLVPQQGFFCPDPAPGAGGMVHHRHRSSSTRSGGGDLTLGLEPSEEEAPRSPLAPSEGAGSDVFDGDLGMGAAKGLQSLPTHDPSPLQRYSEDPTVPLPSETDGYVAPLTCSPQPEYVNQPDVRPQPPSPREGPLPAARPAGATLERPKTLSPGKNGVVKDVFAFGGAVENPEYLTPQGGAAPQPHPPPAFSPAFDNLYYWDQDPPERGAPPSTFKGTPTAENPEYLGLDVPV

SMILES | IC50 (HER2 INS YVMA) | GI50 [1] | GI50 [2] | IC50 (EGFR T790ML858R) | IC50 (EGFR wt) | IC50 (H1975) | IC50 (H1781) | IC50 (A431) | Stability in presence of mouse liver microsomes without cofactor NADPH [% remaining after 50 min] [3]
C=CC(=O)Nc1cc(-c2c(-c3cccc(N4CCN(C)CC4)c3)[nH]c3nccc(Cl)c23)ccc1C [Example 17, N-(5-(4-chloro-2-(3-(4-methylpiperazin-1-yl)phenyl)-1H-pyrrolo[2,3-b]pyridin-3-yl)-2-methylphenyl)acrylamide] | ≤ 100 nM | 100 to 500 nM | 100 to 500 nM | ≤ 100 nM | ≤ 100 nM | ≤ 100 nM | 100 to 500 nM | 100 to 500 nM | 90 % remaining after 50 min
C=CC(=O)Nc1cc(-c2c(-c3ccc(CN4CCOCC4)cc3)[nH]c3nccc(OC)c23)ccc1C [Example 75, N-(5-(4-methoxy-2-(4-(morpholinomethyl)phenyl)-1H-pyrrolo[2,3-b]pyridin-3-yl)-2-methylphenyl)acrylamide] | ≤ 100 nM | 100 to 500 nM | ≤ 100 nM | ≤ 100 nM | ≤ 100 nM | ≤ 100 nM | 100 to 500 nM | 100 to 500 nM | >99 % remaining after 50 min
C=CC(=O)Nc1cc(-c2c(-c3cccc(C(=O)NC4CCN(Cc5ccccc5)CC4)c3)[nH]c3nccc(Cl)c23)ccc1C [Example 48, 3-(3-(3-acrylamido-4-methylphenyl)-4-chloro-1H-pyrrolo[2,3-b]pyridin-2-yl)-N-(1-benzylpiperidin-4-yl)benzamide] | ≤ 100 nM | 100 to 500 nM | 100 to 500 nM | ≤ 100 nM | ≤ 100 nM | ≤ 100 nM | 100 to 500 nM | 100 to 500 nM | 
C=CC(=O)Nc1cc(-c2c(-c3ccc(OCCCN4CCN(CC)CC4)cc3)[nH]c3nccc(Cl)c23)ccc1C [Example 23, N-(5-(4-chloro-2-(4-(3-(4-ethylpiperazin-1-yl)propoxy)phenyl)-1H-pyrrolo[2,3-b]pyridin-3-yl)-2-methylphenyl)acrylamide] | ≤ 100 nM | 100 to 500 nM | 100 to 500 nM | ≤ 100 nM | ≤ 100 nM | ≤ 100 nM | 100 to 500 nM | 100 to 500 nM | >99 % remaining after 50 min
C=CC(=O)Nc1cc(-c2c(-c3cccc(OCCN4CCCC4)c3)[nH]c3nccc(Cl)c23)ccc1C [Example 37, N-(5-(4-chloro-2-(3-(2-(pyrrolidin-1-yl)ethoxy)phenyl)-1H-pyrrolo[2,3-b]pyridin-3-yl)-2-methylphenyl)acrylamide] | ≤ 100 nM | 100 to 500 nM | 100 to 500 nM | ≤ 100 nM | ≤ 100 nM | ≤ 100 nM |  | 100 to 500 nM | >99 % remaining after 50 min
C=CC(=O)N1CCOc2ccc(-c3c(-c4ccnc(N5CCN(C)CC5)c4)[nH]c4nccc(Cl)c34)cc21 [Example 98, 1-(6-(4-chloro-2-(2-(4-methylpiperazin-1-yl)pyridin-4-yl)-1H-pyrrolo[2,3-b]pyridin-3-yl)-2H-benzo[b][1,4]oxazin-4(3H)-yl)prop-2-en-1-one 2,2,2-trifluoroacetate] | ≤ 100 nM | 100 to 500 nM | 100 to 500 nM | ≤ 100 nM | ≤ 100 nM | 100 to 500 nM |  | 500 to 1000 nM | >99 % remaining after 50 min
C=CC(=O)N1CCc2ccc(-c3c(-c4ccc(OCCCN(C)C)cc4)[nH]c4nccc(Cl)c34)cc21 [Example 71, 1-(6-(4-chloro-2-(4-(3-(dimethylamino)propoxy)phenyl)-1H-pyrrolo[2,3-b]pyridin-3-yl)indolin-1-yl)prop-2-en-1-one] | ≤ 100 nM | 100 to 500 nM | 500 to 1000 nM | ≤ 100 nM | ≤ 100 nM | 100 to 500 nM |  | 500 to 1000 nM | >99 % remaining after 50 min
C=CC(=O)Nc1cc(-c2c(-c3cccc(CN(C)C)c3)[nH]c3ncc(C(=O)OC(C)C)cc23)ccc1C [Example 187, isopropyl 3-(3-acrylamido-4-methylphenyl)-2-(3-((dimethylamino)methyl)phenyl)-1H-pyrrolo[2,3-b]pyridine-5-carboxylate] | ≤ 100 nM | 100 to 500 nM | 100 to 500 nM | ≤ 100 nM | ≤ 100 nM | 100 to 500 nM |  | 1000 to 100000 nM | >99 % remaining after 50 min
C=CC(=O)N1CCc2ccc(-c3c(-c4cccc(OCCN5CCCC5)c4)[nH]c4nccc(OCC)c34)cc21 [Example 109, 1-(6-(4-ethoxy-2-(3-(2-(pyrrolidin-1-yl)ethoxy)phenyl)-1H-pyrrolo[2,3-b]pyridin-3-yl)indolin-1-yl)prop-2-en-1-one] | ≤ 100 nM | 100 to 500 nM | 100 to 500 nM | ≤ 100 nM | ≤ 100 nM | ≤ 100 nM |  | 500 to 1000 nM | 77 % remaining after 50 min
C=CC(=O)Nc1cc(-c2c(-c3cccc(OCCN4CCCC4)c3)[nH]c3ncc(C(=O)OC(C)C)cc23)ccc1C [Example 170, isopropyl 3-(3-acrylamido-4-methylphenyl)-2-(3-(2-(pyrrolidin-1-yl)ethoxy)phenyl)-1H-pyrrolo[2,3-b]pyridine-5-carboxylate] | ≤ 100 nM | 100 to 500 nM | 100 to 500 nM | ≤ 100 nM | ≤ 100 nM | 100 to 500 nM |  | 1000 to 100000 nM | >99 % remaining after 50 min
C=CC(=O)N1CCOc2ccc(-c3c(-c4ccc(N5CCN(C(C)C)CC5)cc4)[nH]c4nccc(Cl)c34)cc21 [Example 85, 1-(6-(4-chloro-2-(4-(4-isopropylpiperazin-1-yl)phenyl)-1H-pyrrolo[2,3-b]pyridin-3-yl)-2H-benzo[b][1,4]oxazin-4(3H)-yl)prop-2-en-1-one] | ≤ 100 nM | 100 to 500 nM | 100 to 500 nM | ≤ 100 nM | ≤ 100 nM | 100 to 500 nM |  | 500 to 1000 nM | >99 % remaining after 50 min
C=CC(=O)N1CCc2ccc(-c3c(-c4ccc(N(C)CCN(C)C)cc4)[nH]c4nccc(Cl)c34)cc21 [Example 65, 1-(6-(4-chloro-2-(4-((2-(dimethylamino)ethyl)(methyl)amino)phenyl)-1H-pyrrolo[2,3-b]pyridin-3-yl)indolin-1-yl)prop-2-en-1-one] | ≤ 100 nM | 100 to 500 nM | 500 to 1000 nM | ≤ 100 nM | ≤ 100 nM | ≤ 100 nM |  | 500 to 1000 nM | >99 % remaining after 50 min
